Experimental data as given in US9409893B2, “Heteroaryl derivatives and uses thereof” (Jacobus Pharmaceutical Company, Inc., priority 2012, dated 2016).
Counter-ions that a name gives are not always drawn. Like-named read-outs stand apart in the source and are kept apart here. Marks after values point to notes of the source that are not given here. One block for each compound: values may come before it.

Key:
[1] = system: Plasmodium berghei (KBG-173 strain); test: Plasmodium berghei assay in vivo (modified Thompson Test) in CD-1 mice; conditions: bid on days 3, 4 and 5; for Average Days Survival: 31 day experiment; for responders at 4 mg/kg / responders at 8 mg/kg / responders at 16 mg/kg / responders at 32 mg/kg / responders at 64 mg/kg: Plasmodium berghei, 744 h, CD-1 mice infected with P. berghei, read-out: Number of mice alive at day 31 (converted)
Method: In vivo antimalarial activity was tested in male or female Charles River CD-1 mice that were 4-5 weeks old and weighed 20-25 g They were housed in groups of 3 or 4 in standard plastic cages with wire tops, Bed-o-Cob® bedding, 12 hr/day of light, and maintained at 75° F. They were fed a standard Ralston Purina mouse chow and the cages and bottles were changed twice a week. Test compounds were ground in a mortar and pestle and diluted with enough vehicle to give a volume of 10 mL/kg of mouse weight. The oral doses were prepared in 0.5% hydroxyethylcellulose (Union Carbide Corp. WP 4400)/0.1% Tween-80 (Fisher Scientific T164-500). The amount of drug was calculated on the free base weight. The mice were infected intraperitoneally on day 0 with 5×10^4 erythrocytes parasitized with Plasmodium berghei (KBG-173 strain) from a donor mouse having a parasitemia between 5-10%. On days 3, 4 and 5 the test compounds were administered bid, spaced 6 hr apart, by oral gavage to the mice. Activity was measured by survival, with full activity defined as all animals living at day 31. Partial activity is defined as days of increased survival versus the infected non-treated controls. This in vivo model is a modification of the Thompson Test. For further description see Ager, A. L, Jr. Rodent Malaria Models. In Handbook of Experimental Pharmacology: Antimalarial Drugs. 1. 68/1; Peters, W., Richards, W. H. G., Eds.: Springer-Verlag: Berlin, 1984, pp. 231-33.

P. falciparum strain D6 = test: [3H]-hypoxanthine growth inhibition assay, P. falciparum D6; assay type: cell-based; conditions: Plasmodium falciparum
Method: (§1) The potential for antimalarial activity against Plasmodium falciparum was determined by measuring the incorporation of tritiated hypoxanthine into parasitized red blood cells.
(§2) Stock solutions of the test compounds and the reference drug chloroquine (CQ) (Sigma Chemicals C-6628, Lot #059H0919) were prepared in silanized glass vials with AquaSil™ (Pierce, USA) to minimize absorption of the compounds to glassware. All test compounds were dissolved in DMSO (Sigma Cat No. #D8418) to 1 mM concentration, whereas CQ was dissolved in 50% methanol at a concentration of 1.6 mg/ml (base). Stock solutions were stored at −20° C.
(§3) The P. falciparum laboratory adapted strains utilized in this project (Table 1) were in vitro cultured and routinely maintained in RPMI-1640-LPLF complete medium, which contained low concentrations of para-amino benzoic acid (0.0005 mg/L) and folic acid (0.01 mg/L).
(§4) The low concentration of folic acid in RPMI-1640-LPLF prevents inhibition of the compound if its activity targets the parasite's folate metabolic pathway. Parasites were cultured in human red blood cells (RBCs) in vitro at 37° C. in special gas mixture (5% O2, 5% CO2 and 90% N2) as described Trager and Jensen (1979 Science 193:673-675).
(§5) Base cultivation medium consisted of 10.4 g/L RPMI-1640-LPLF powder (Gibco BRL), 5.97 g/L HEPES buffer (MP Biomedicals, USA), 2.0 g/L D-glucose (BDH chemicals, Australia), 0.05 g/L hypoxanthine (Sigma, USA) and 40 mg/L gentamycin (Pfizer, Australia). The pH of the medium was adjusted to 6.9 and the solution was filtered using 0.2 μm pore size (AcroCap, Gelman Science, USA). Complete medium was prepared by adding sodium bicarbonate solution (final concentration, 0.21%) and drug-free heat-inactivated human plasma, pooled from various blood types, obtained from the Australian Red Cross Blood Service (Brisbane) (final concentration, 10%) to the base RPMI-1640-LPLF. For [^3H]-hypoxanthine inhibition growth assay, RPMI-1640-LPLF complete medium which lacked [^3H]-hypoxanthine ([^3H]-RPMI-1640-LPLF) was used to prevent uptake of hypoxanthine by parasites, as radioactive hypoxanthine uptake is measured as a surrogate marker of growth. All complete medium was used within three days of preparation. See DE (Para) SOP 002 for methodology.
(§6) Red blood cells (RBC) were required for P. falciparum parasites to proliferate in vitro. 0 (Rh+) type blood was obtained from the Australian Red Cross Blood Service. The RBC were washed twice in phosphate-buffered saline (PBS) and once in [^3H]-RPMI-1640-LPLF complete medium by centrifugation at 1,500×g for 5 min. Following the final wash, the haematocrit was measured as the percent of RBC to total culture volume. The haematocrit was adjusted to 50% by removing or adding [^3H]-RPMI-LPLF complete medium. See DE (Para) SOP 003 for methodology.
(§7) All P. falciparum strains were grown in RPMI-1640-LPLF complete medium at 4% haematocrit and 1% to 8% parasitaemia at 37° C. in sealed flasks in a gas mixture of 5% O2, 5% CO2 and 90% N2 (BOC Gases, Brisbane, Australia). For drug susceptibility assays cultures were routinely synchronized when the majority of parasites (>85%) were at early trophozoite (ring) stage. Synchronization involved removing the more mature erythrocytic parasite stages by lysis, resulting in the retention only of early trophozoite (ring) stages. Synchronization was performed by re-suspending the infected red blood cell (iRBC) pellet in 5 to 10 times its volume of 5% D-sorbitol (Bacto Laboratories Pty. Ltd., Australia) for 5 min (Lambros and Vanderberg, 1979 J Parasitol 65: 418-420). The mixture was centrifuged (1,500 rpm for 5 min) and the supernatant removed. The iRBC were washed twice using PBS buffer and once using [^3H]-RPMI-LPLF plain medium. Following synchronization, a new culture was prepared with an initial parasitaemia of 1% in RPMI-LPLF complete medium. See DE (Para) SOP 008 for methodology.

P. falciparum strain W2 = test: [3H]-hypoxanthine growth inhibition assay, P. falciparum W2; assay type: cell-based; conditions: Plasmodium falciparum
Method: as §1, §2, §3, §4, §5, §6, §7

[2] = P. falciparum D6 (sensitive to chloroquine and pyrimethamine), [3H]-hypoxanthine incorporation, read-out: D6 IC50
[3] = P. falciparum W2 (resistant to chloroquine and pyrimethamine), [3H]-hypoxanthine incorporation, read-out: W2 IC50

Compound: CC(C)(C)NCc1cc(-c2ccc(F)cc2)cc(-c2ccc(C(F)(F)F)nc2)c1O.Cl [Example 66, 3-((tert-Butylamino)methyl)-4′-fluoro-5-(6-(trifluoromethyl)pyridin-3-yl)-[1,1′-biphenyl]-4-ol hydrochloride]
Average Days Survival ([1]; 4 mg/kg/day oral): >21.3 days
Average Days Survival ([1]; 8 mg/kg/day oral): >26 days
Average Days Survival ([1]; 16 mg/kg/day oral): >31* days
Average Days Survival ([1]; 32 mg/kg/day oral): >24 days
Average Days Survival ([1]; 64 mg/kg/day oral): >7 days
responders at 4 mg/kg ([1]; 4 mg/kg/day oral): 14.3%
responders at 8 mg/kg ([1]; 8 mg/kg/day oral): 85.7%
responders at 16 mg/kg ([1]; 16 mg/kg/day oral): 100%
responders at 32 mg/kg ([1]; 32 mg/kg/day oral): 85.7%
responders at 64 mg/kg ([1]; 64 mg/kg/day oral): 85.7%
IC50 (P. falciparum strain D6; [2]): 0.07 µM
IC50 (P. falciparum strain W2; [3]): 0.041 µM

Compound: CC(C)(C)NCc1cc(C(C)(C)C)cc(-c2cnc(Cl)c(Cl)c2)c1O.Cl [Example 41, 4-(tert-Butyl)-2-((tert-butylamino)methyl)-6-(5,6-dichloropyridin-3-yl)phenol hydrochloride]
Average Days Survival ([1]; 4 mg/kg/day oral): >31* days
Average Days Survival ([1]; 8 mg/kg/day oral): >31* days
Average Days Survival ([1]; 16 mg/kg/day oral): >31* days
Average Days Survival ([1]; 32 mg/kg/day oral): >31* days
Average Days Survival ([1]; 64 mg/kg/day oral): >31* days
responders at 4 mg/kg ([1]; 4 mg/kg/day oral): 100%
responders at 8 mg/kg ([1]; 8 mg/kg/day oral): 100%
responders at 16 mg/kg ([1]; 16 mg/kg/day oral): 100%
responders at 32 mg/kg ([1]; 32 mg/kg/day oral): 100%
responders at 64 mg/kg ([1]; 64 mg/kg/day oral): 100%
IC50 (P. falciparum strain D6; [2]): 0.01 µM
IC50 (P. falciparum strain W2; [3]): 0.003 µM

Compound: CC(C)Oc1ccc(-c2cc(C(C)(C)C)cc(CNC(C)(C)C)c2O)cn1 [Example 10, 4-(tert-Butyl)-2-((tert-butylamino)methyl)-6-(6-isopropoxypyridin-3-yl)phenol dihydrochloride]
IC50 (P. falciparum strain D6; D6, read-out: D6 IC50): 0.025 µM
IC50 (P. falciparum strain W2; W2, read-out: W2 IC50): 0.011 µM

Compound: CC(C)(C)NCCCNCc1cc(C(C)(C)C)cc(-c2ccc(C(F)(F)F)nc2)c1O [Example 60, 4-(tert-Butyl)-2-(((3-(tert-butylamino)propyl)amino)methyl)-6-(6-(trifluoromethyl)pyridin-3-yl)phenol dihydrochloride]
IC50 (P. falciparum strain D6; D6, read-out: D6 IC50): 0.134 µM
IC50 (P. falciparum strain W2; W2, read-out: W2 IC50): 0.175 µM

Compound: CC(C)(C)NCc1cc(C(C)(C)C)cc(-c2cc3ccccc3o2)c1O [Example 6, 2-(Benzofuran-2-yl)-4-(tert-butyl)-6-((tert-butylamino)methyl)phenol hydrochloride]
IC50 (P. falciparum strain D6; [2]): 0.031 µM
IC50 (P. falciparum strain W2; [3]): 0.013 µM

Compound: CC(C)(C)NCc1cc(C(C)(C)C)cc(-c2ccncc2C(F)(F)F)c1O [Example 35, 4-(tert-Butyl)-2-((tert-butylamino)methyl)-6-(3-(trifluoromethyl)pyridin-4-yl)phenol dihydrochloride]
IC50 (P. falciparum strain D6; D6, read-out: D6 IC50): 0.549 µM
IC50 (P. falciparum strain W2; W2, read-out: W2 IC50): 0.144 µM

Compound: CC(C)(C)c1cc(CNCCCN)c(O)c(-c2ccc(C(F)(F)F)nc2)c1 [Example 62, 2-(((3-Aminopropyl)amino)methyl)-4-(tert-butyl)-6-(6-(trifluoromethyl)pyridin-3-yl)phenol dihydrochloride]
IC50 (P. falciparum strain D6; D6, read-out: D6 IC50): 0.133 µM
IC50 (P. falciparum strain W2; W2, read-out: W2 IC50): 0.223 µM

Compound: CC(C)(C)NCc1cc(C(C)(C)C)cc(-c2ccc(Cl)s2)c1O [Example 2, 4-(tert-Butyl)-2-((tert-butylamino)methyl)-6-(5-chlorothiophen-2-yl)phenol hydrochloride]
IC50 (P. falciparum strain D6; [2]): 0.045 µM
IC50 (P. falciparum strain W2; [3]): 0.025 µM

Compound: CC(C)(C)NCc1cc(-c2ccc(Cl)c(C(F)(F)F)c2)cc(-c2ccc(C(F)(F)F)nc2)c1O [Example 39, 3-((tert-Butylamino)methyl)-4′-chloro-3′-(trifluoromethyl)-5-(6-(trifluoromethyl)pyridin-3-yl)-[1,1′-biphenyl]-4-ol hydrochloride]
IC50 (P. falciparum strain D6; [2]): 0.073 µM
IC50 (P. falciparum strain W2; [3]): 0.042 µM

Further lines, results first:

IC50 (P. falciparum strain D6; [2]): 0.275 µM
IC50 (P. falciparum strain W2; [3]): 0.106 µM
Compound: CN(Cc1cc(C(C)(C)C)cc(-c2ccc(C(F)(F)F)nc2)c1O)C(C)(C)C [Example 45, 4-(tert-Butyl)-2-((tert-butyl(methyl)amino)methyl)-6-(6-(trifluoromethyl)pyridin-3-yl)phenol hydrochloride]

IC50 (P. falciparum strain D6; [2]): 125 µM
IC50 (P. falciparum strain W2; [3]): 81.6 µM
Compound: CC(C)(C)NCc1cc(S(C)(=O)=O)cc(-c2ccc(C(F)(F)F)nc2)c1O [Example 72, 2-((tert-Butylamino)methyl)-4-(methylsulfonyl)-6-(6-(trifluoromethyl)pyridin-3-yl)phenol hydrochloride]

IC50 (P. falciparum strain D6; [2]): 0.043 µM
IC50 (P. falciparum strain W2; [3]): 0.031 µM
Compound: CCN(CC)Cc1cc(C(C)(C)C)cc(-c2ccc(C(F)(F)F)nc2)c1O [Example 47, 4-(tert-Butyl)-2-((diethylamino)methyl)-6-(6-(trifluoromethyl)pyridin-3-yl)phenol hydrochloride]

IC50 (P. falciparum strain D6; [2]): 2.1 µM
IC50 (P. falciparum strain W2; [3]): 1.97 µM
Compound: CC(C)(C)NCc1cc(C(C)(C)C)cc(-c2nccc(C(F)(F)F)n2)c1O [Example 46, 4-(tert-Butyl)-2-((tert-butylamino)methyl)-6-(4-(trifluoromethyl)pyrimidin-2-yl)phenol hydrochloride]

IC50 (P. falciparum strain D6; [2]): 0.046 µM
IC50 (P. falciparum strain W2; [3]): 0.024 µM
Compound: CC(C)(C)c1cc(CN2CCCCC2)c(O)c(-c2ccc(C(F)(F)F)nc2)c1 [Example 51, 4-(tert-Butyl)-2-(piperidin-1-ylmethyl)-6-(6-(trifluoromethyl)pyridin-3-yl)phenol hydrochloride]
